Reference: PMC7395176, “Retromer stabilization results in neuroprotection in a model of Amyotrophic Lateral Sclerosis” (Nature Communications, 2020)

What was measured:
GM130 = experiment: Golgi apparatus (GM130) in MNs of treated G93A mice; assay type: in vivo; settings: 10 mg/kg, day 100
Description: Ubiquitinated inclusions accumulate in MNs from sALS and fALS patients, and in ALS mice[51]. We characterized poly-ubiquitinated proteins in lumbar SCs protein extracts by 10% denaturating PAGE. Protein extracts from Neuro2a cells treated with the proteasome inhibitor Bortezomib (BTZ), able to increase poly-ubiquitination, were used as an experimental control[52] (Fig. 7a). […] We next scored ubiquitin MFI levels in ventral horn MNs of G93A mice. […] (Fig. 7c and d). We next scored the Golgi apparatus in G93A mice by labeling lumbar sections for the cis-Golgi matrix protein GM130[54]. […] (Fig. 7e).
Sections from mice or glass covers containing cells were washed three times in PBS 1× (Lonza, 5 min each), and incubated in the following blocking mix: PBS 1×/FBS 10% (Invitrogen), BSA 1 mg/mL (Sigma–Aldrich), TritonX100 0.1% (Sigma Aldrich), for 1 h at room temperature. Antibodies were diluted in blocking mix and incubated at +4 °C overnight according manufacturer’s instructions. The following day, sections were rinsed in PBS and fluorescent secondary antibodies—i.e. never deriving from the species from which the primary antibodies are derived- (Alexafluor conjugated) diluted in blocking mix, were used according to the manufacturer’s instructions. Slides were incubated in Hoechst 33342 (Sigma–Aldrich) for nuclei counterstaining. […]

[1] = system: Mouse cortical neurons (E16.5); experiment: Micro Electrode Array (MEA) recording of neuronal firing; assay type: cell-based
Method: We assessed the cytotoxicity of compound 2a, measuring survival of Neuro2a cells exposed to increasing 2a concentrations. […] We next checked for toxic effects of compound 2a in primary neuronal cultures coupled with Micro Electrode Array (MEA) devices. Mouse cortical neurons (E16.5) were plated on MEAs, kept in culture for 14 days to develop firing activity and recorded in presence of 2a.
Primary neuronal cultures were established from the cerebral cortex of E16.5 C57BL6J embryos. Upon dissection, cells were plated on MEA biochips (60 electrode MEA biochips with 200 µm electrode spacing and 30 µm electrodes diameter with an integrated reference electrode, Multichannel Systems GmbH) at the density of 3 × 10^5 cells/MEA and kept in Neurobasal medium supplemented with B27 for 14 days. At day 14 neuronal cultures were exposed to increasing concentration of compound 2a (1, 3, 10, 30, and 100 µM) in Krebs–Ringer–Hepes buffer (KRH, 130 mM NaCl, 5 mM KCl, 1.2 mM KH2PO4, 1.2 mM MgSO4, 2 mM CaCl2, 25 mM Hepes, 0.6% glucose, 1% glutamine, Sigma–Aldrich). Firing activity was recorded using a pre-amplifier stage (MEA-1060-Inv-BC-Standard, gain: 55, bandwidth: 300 Hz–8 kHz, MCS GmbH), an amplification and filtering stage (FA64S, gain 20, bandwidth: 10 Hz–8 kHz, MCS GmbH) and a data acquisition device (sampling frequency: 25 kHz). Then, off-line signal processing was performed, and raw data were analyzed by MC-Rack Software version 4.6.2 (MCS GmbH).
Panels a and b; neuronal activityfrom the same electrode of a representative MEA biochip (3x105 cortical neurons/chip, n=5 independent chips from 2 independent experiments) treated with 2a, at the concentration of 1 µM (a) and 100 µM (b). Neurons received increasing amounts of lead 2a (1,3, 10, 30 and 100 µM) and were recorded every 5 min; c, quantifications of the firing activityreported as fold changes of spike numbers (box plots show median values; whiskers show 10-90 percentile) measured at the concentration of 1
µM. Kruskal-Wallis testfollowed by Dunn’s multiple comparison test was used to analyze the […]

Compound: NC(N)=N/N=C/c1cccc(/C=N/N=C(N)N)c1 [compound 2a, phenyl-1,3-bis-guanylhydrazone]
- reduction of GM130-covered areas in MNs (Golgi fragmentation) (GM130): substantially reverted
- neuronal firing ([1]; 10µM): does not perturb neuronal firing
- neuronal firing (spikes) ([1]; 100 μM of 2a): slight reduction of spikes
- neuronal firing ([1]; low concentrations of 2a): did not alter neuronal firing
